# Assay: structure-activity relationship for anti-inflammatory activity (FIG. 3)
# Details: SAR results
# Description: The loss or modification of the 5-methoxy results in reduced efficacy in DOx/2Cx compounds.
# We determined that DOx/2Cx structures with a modified or missing 5-methoxy have reduced anti-inflammatory activity (FIG. 3). […] Without wishing to be bound by theory, the 5-methoxy of the DOx/2Cx compounds can engage residues in the binding pocket similar to those that engage the 4-OH of tryptamines, although the residues engaged by tryptamines have not been elucidated because the crystal structure of a tryptamine in the 5-HT2A receptor has not yet been published. […] Thus, without wishing to be bound by theory, a water molecule also must be present there to form a hydrogen bond bridge from the oxygen to N343.
# The SAR results as shown in FIG. 3 are consistent with engagement of TM6 N343 by the 5-methoxy or 4-OH of DOx/2Cx or tryptamines, respectively, through a hydrogen bond bridge with a water molecule to produce the conformational change to recruit anti-inflammatory effectors to the activated receptor.
smiles,measurement,value
"CN(C)CCc1c[nH]c2ccccc12 [N,N-DMT, N,N-dimethyltryptamine]",anti-inflammatory efficacy/activity,complete loss of efficacy
